Laboratory results taken from US20160138113A1, “METHODS AND COMPOSITIONS FOR THE DIAGNOSIS, PROGNOSIS AND TREATMENT OF BRAIN METASTASIS” (MEMORIAL SLOAN-KETTERING CANCER CENTER, priority 2013, published 2016).

Test system: CTSS
Assay: shRNA-mediated CTSS knockdown in Br-M cells (qPCR, western blot)
Assay type: cell-based, human
Text: Five shRNA sequences targeting CTSS were obtained from the RNAi Codex and RNAi Consortium. shRNA sequences were inserted into the targeting hairpin sequence for the pRetroSuper vector. Correct insertion into the vector was verified by digestion and sequencing of the vector. Plasmids with the correct shRNA targeting sequence were transfected into H29 viral packaging cells. Viral particles were concentrated from the H29 cell supernatant, added to the target cells in the presence of polybrene and cells were selected with puromycin. One of the […] shRNAs (CTSS shRNA: GATAAAGTTTGCTAAGTAA—TTACTTAGCAAACTTTATC) was used for subsequent experiments to target CTSS with 90% KD efficiency. A non-targeting shRNA [CGCCATAAATATAACTTTA—TAAAGTTATATTTATGGCG] was used as control.
RNA was isolated with Trizol, DNase treated, and 0.2 μg of RNA was used for cDNA synthesis. Details about the Taqman assays can be found in Table 4. […]
Conditioned media (CM) from Br-M cell lines was generated by incubating confluent cell layers in serum-free DMEM media for 24 hours. […] Protein was quantified using the BCA assay (Pierce). […] Membranes were probed with antibodies as indicated in Table 5 and detected using the appropriate HRP-conjugated secondary antibodies using chemoluminescence detection (Millipore). Bands from western blots were quantified in the dynamic range using the Gel analysis module in ImageJ software.

## CTSS shRNA: shRNA targeting CTSS: GATAAAGTTTGCTAAGTAA—TTACTTAGCAAACTTTATC, in pRetroSuper vector (loop; in pRetroSuper vector)
  CTSS KD efficiency: 90%
